Here are results for 3 compounds from paper PMC9851725 (International Journal of Biological Macromolecules, 2023).

Data set [1] deals with SARS-CoV-2. To be noted: Vero-E6 cells ref 9; cited from earlier work.
The test system of data set [2] is SARS-CoV-2. It counts as cell-based.
The conditions of data set [3]: 15, 30, 45 mg/kg oral; observation period of five days.
Data set [4] relates to SARS-CoV-2. It counts as in vivo, Syrian hamster. To be noted: for reduction in virus RNA levels in throat swabs vs untreated control: daily day 0–4, day 5.
The target in the next data set is PLpro (Severe acute respiratory syndrome coronavirus 2, UniProt P0DTD1). The data set is described as follows: Differential scanning fluorimetry. To be noted: PLpro 2.5 μM; ATA 0.78 μM to 200 μM; 20 °C to 90 °C. (DSF heats the sample and reads unfolding from a dye or from intrinsic fluorescence.)
For data set [5], the target named is T1, SARS-CoV-2 PLpro (Severe acute respiratory syndrome coronavirus 2, UniProt P0DTD1). The data set is classed as biochemical.
In data set [6] the target is T1, SARS-CoV-2 PLpro. The data set is classed as binding.
[7] abbreviates: PLpro pre-incubated with GRL0617 for 2 h.
The mark [8] stands for this setting: binding to PLpro, no pre-incubation.

Where two headings read alike, the source gives them in different places.

One may read the EC50 as the concentration that produces a half-maximal response. Take `Nc1nc2nc[nH]c2c(=S)[nH]1` [6-TG, 6-thioguanine]: the EC50 in the data set on SARS-CoV-2 [1] is about 2 µM.
`O=C(O)C1=CC(=C(c2ccc(O)c(C(=O)O)c2)c2ccc(O)c(C(=O)O)c2)C=CC1=O` [ATA, aurintricarboxylic acid]: the “% reduction” value with SARS-CoV-2 [2] (25 μM ATA) is 3.1%; with SARS-CoV-2 [2] (75 μM ATA), 84.2%; with SARS-CoV-2 [2] (100 μM ATA), 91.7%; in the data set with SARS-CoV-2 [2] (200 μM ATA), 92.2%; with SARS-CoV-2 [2] (300 μM ATA) it was 97.1%; in the data set on SARS-CoV-2 [2] (400 μM ATA) it was 99.0%. For the same compound, the “Viral RNA copy no./ml” value was determined as 2404 with SARS-CoV-2 [2] (25 μM ATA); 393 with SARS-CoV-2 [2] (75 μM ATA); 207 in the data set with SARS-CoV-2 [2] (100 μM ATA); 193 in the data set with SARS-CoV-2 [2] (200 μM ATA); 71 in the data set with SARS-CoV-2 [2] (300 μM ATA); 25 in the data set with SARS-CoV-2 [2] (400 μM ATA). Also, the “weight loss, gross complications, or mortality” value in data set [3] is “no significant weight loss”. In the data set with SARS-CoV-2 [4] (15, 30, 45 mg/kg oral, day 5), the “reduction of virus RNA levels in lung tissues vs untreated control” value is listed as “no significant reduction”. In addition, the “lung pathology vs untreated” value in the data set on SARS-CoV-2 [4] (15, 30, 45 mg/kg oral, day 5, H&E) is listed as “no noticeable difference”. Moreover, the “reduction in virus RNA levels in throat swabs vs untreated control” value came to 0.4 log in the data set on SARS-CoV-2 [4] (group A, 15 mg/kg oral); 0.4 log with SARS-CoV-2 [4] (group B, 30 mg/kg oral); 1 log in the data set on SARS-CoV-2 [4] (group C, 45 mg/kg oral). Moreover, on PLpro, the “effect on PLpro structure (SYPRO Orange dye fluorescence)” value is reported as “stabilizes the protein structure”. The type of inhibition entry on SARS-CoV-2 PLpro [5] (best fit of kinetic data among four models (AICc)) is “non-competitive”. For the same compound, on SARS-CoV-2 PLpro [5] (compounds up to 300 μM, 200 nM enzyme, 20 μM substrate, 5 mM DTT), the “inhibition of PLpro enzymatic activity in library screening” value is recorded as “significant inhibition”. Moreover, the figures for the “N (stoichiometry)” value on SARS-CoV-2 PLpro [6] (setting [7]) and at SARS-CoV-2 PLpro [6] (setting [8]) were 1.30 and 1.31, respectively. Besides, the “ΔH (enthalpy change)” value on SARS-CoV-2 PLpro [6] (setting [7]) was -2.403 kcal/mol; at SARS-CoV-2 PLpro [6] (setting [8]), -2.469 kcal/mol. In addition, the “ΔS (entropy change)” value came to 14.6 cal/mol/deg on SARS-CoV-2 PLpro [6] (setting [7]) and 14.3 cal/mol/deg on SARS-CoV-2 PLpro [6] (setting [8]). Besides, at SARS-CoV-2 PLpro [6] (one-site binding model, no pre-incubation), the “enthalpy (ΔH)” value was -2.47 kcal/mol.
Turning to `O=C1C=CC(=C(c2ccc(O)cc2)c2ccc(O)cc2)C=C1` [aurin, reference compound], the “inhibition of PLpro” value against SARS-CoV-2 PLpro [5] is reported as “didn't inhibit”.
